The values below come from ChEMBL document CHEMBL4184163, “Aspergillus candidus is a newly recognized source of sphaeropsidin A: Isolation, semi-synthetic derivatization and anticancer evaluation” (Bioorg Med Chem Lett, 2017).

Activity calls are given as the source filed them. The calls are words filed in the database; no cut-off is given here.

The species entered for series [1] is Homo sapiens. Briefly: Antiproliferative activity against human D423 cells grown as 2D culture at 0.0625 to 10 uM after 5 days by CellTiter-Glo luminescence assay. It counts as functional, cell-based. A general note: ATP-based viability assays read luminescence as a measure of living cells.
The species named for series [2] is Homo sapiens. Briefly: Antiproliferative activity against human GLI56 cells grown as 3D culture at 10 uM after 5 days by CellTiter-Glo 3D viability assay. Format: functional, cell-based.
The species named for series [3] is Homo sapiens. Briefly: Antiproliferative activity against human D423 cells grown as 3D culture at 10 uM after 5 days by CellTiter-Glo 3D viability assay. It counts as functional, cell-based.
The species entered for series [4] is Homo sapiens. Briefly: Antiproliferative activity against human GLI56 cells grown as 2D culture at 0.0625 to 10 uM after 5 days by CellTiter-Glo luminescence assay. It counts as functional, cell-based.
The species named for series [5] is Homo sapiens. Briefly: Cytotoxicity against human GLI56 cells grown as 3D culture assessed as disruption of morphological integrity at 10 uM after 5 days by confocal laser scanning microscopic method. Format: functional, cell-based.
The species named for series [6] is Homo sapiens. Briefly: Cytotoxicity against human D423 cells grown as 3D culture assessed as disruption of morphological integrity at 10 uM after 5 days by confocal laser scanning microscopic method. Format: functional, cell-based.
Series [7] is described as follows: Growth inhibition of normal human epidermal melanocytes by MTT assay. Format: cell-based, Melanocyte. In general terms: Tetrazolium assays rely on reduction of a dye to a coloured formazan, in cell work by metabolically active cells.
Series [8] relates to Panel NCI-60 (60 carcinoma cell lines). As to the kind of experiment: Growth inhibition of human NCI60 cells. Format: functional.

As to `C=C[C@]1(C)C=C2C(=O)[C@@]3(OC(=O)CCC)OC(=O)[C@@]4(CCCC(C)(C)[C@H]34)[C@@]2(O)CC1`, the result in series [1], in series [2], in series [4] and in series [5] was Active. In series [3], the result was inactive.
Consider `CC1(C)CCC[C@]23C(=O)O[C@](O)(C(=O)C4=C[C@@](C)(/C=C/[Si](C)(C)C)CC[C@@]42O)[C@@H]13`, for which the result in series [1] and in series [4] was Active. Also, the result in series [2] and in series [3] was inactive.
Turning to `C=C[C@]1(C)C=C2C(=O)[C@@]3(OC(=O)c4ccc(C)o4)OC(=O)[C@@]4(CCCC(C)(C)[C@H]34)[C@@]2(O)CC1`, the result in series [1], in series [2], in series [3], in series [6], in series [4] and in series [5] was Active.
`CC1(C)CCC[C@]23C(=O)O[C@](O)(C(=O)C4=C[C@@](C)(/C=C/c5ccc(Cl)cc5)CC[C@@]42O)[C@@H]13`: the outcome in series [1], in series [2], in series [3], in series [6], in series [4] and in series [5] was Active.
For `C=C[C@]1(C)C=C2C(=O)[C@@]3(O)OC(=O)[C@@]4(CCCC(C)(C)[C@H]34)[C@@]2(O)CC1` [SPHAEROPSIDIN A], the outcome in series [1] and in series [4] was Active. Further, the outcome in series [2], in series [3] and in series [5] was inactive. In addition, the concentration for 50% growth inhibition (GI50) in series [7] worked out at 13 µM; in series [8] it was 1.6 µM.
In the case of `C=CCCCC(=O)O[C@]12OC(=O)[C@@]3(CCCC(C)(C)[C@H]13)[C@@]1(O)CC[C@](C)(C=C)C=C1C2=O`, the outcome in series [1], in series [2], in series [4] and in series [5] was Active. For the same molecule, the result in series [3] was inactive.

As usually defined, the GI50 is the concentration that inhibits growth by half. Lower therefore signals greater sensitivity of the cells.
